Measurements reported in the NIST ThermoML archive (doi:10.1016/j.tca.2014.07.018).

Assay: molar heat capacity at saturation pressure
Settings: Crystal, Small (less than 1 g) adiabatic calorimetry

C1C2CC3CC1CC(c1nnn[nH]1)(C2)C3 [5-(1-adamantyl)tetrazole]
Settings	molar heat capacity [J/K/mol]
164.89 K	124.3
166.9 K	125.8
168.9 K	127.4
170.91 K	128.9
172.92 K	130.5
174.93 K	132
176.93 K	133.7
178.93 K	135.1
180.94 K	136.8
182.95 K	138.3
184.97 K	140.1
186.99 K	141.6
189 K	143.3
191.02 K	144.9
193.03 K	146.6
195.05 K	148.4
197.07 K	150.1
199.09 K	151.7
201.1 K	153.4
203.13 K	155.1
205.16 K	156.8
207.18 K	158.6
209.21 K	160.4
211.24 K	162.1
213.27 K	163.9
215.3 K	165.7
217.33 K	167.6
219.37 K	169.4
221.4 K	171.2
223.43 K	173
224.08 K	173.6
225.46 K	174.9
226.05 K	175.4
227.5 K	176.8
228.08 K	177.3
230.12 K	179.2
232.16 K	181.1
234.19 K	183.1
236.23 K	184.9
238.27 K	186.8
240.31 K	188.8
242.35 K	190.8
244.39 K	192.5
246.43 K	194.5
248.47 K	196.4
250.51 K	198.4
252.55 K	200.3
254.59 K	202.2
256.64 K	204.1
258.68 K	206.2
260.73 K	208
262.77 K	209.9
264.81 K	211.9
266.86 K	213.7
268.9 K	215.5
270.94 K	217.3
272.99 K	219.2
275.03 K	221
277.08 K	222.9
279.13 K	224.5
281.18 K	226.3
283.22 K	227.9
285.27 K	229.8
287.32 K	231.5
289.37 K	233.1
291.42 K	234.7
293.46 K	236.3
295.51 K	237.9
297.56 K	239.7
299.61 K	241.3
301.65 K	242.8
303.7 K	244.6
305.75 K	246
307.8 K	247.6
309.86 K	249.2
311.91 K	250.7
313.96 K	252.3
316.02 K	253.9
318.07 K	255.5
320.14 K	256.9
322.2 K	258.6
324.26 K	260.2
326.32 K	261.8
328.38 K	263.2
330.44 K	264.8
332.5 K	266.3
334.57 K	267.8
336.63 K	269.4
338.69 K	270.9
340.76 K	272.4
342.83 K	274.2
344.9 K	275.7
346.97 K	277.1
349.04 K	278.9
351.11 K	280.5
353.2 K	282.1
355.27 K	283.8
357.34 K	285.5
359.41 K	287.2
361.48 K	288.9
363.56 K	290.4
365.63 K	292
367.7 K	293.7
